Each structure is given as a SMILES string. The source made the active and inactive calls. No rule for the calls is given here.

This data set deals with CCRIS mutagenicity, Ames/micronucleus/aberration tests. Put plainly: CCRIS mutagenicity studies.
Where [1] appears, read: Test System: AMES SALMONELLA TYPHIMURIUM, Strain/Indicator: TA100, Metabolic Activation: NONE, Method: PREINCUBATION
The mark [2] stands for this setting: Test System: AMES SALMONELLA TYPHIMURIUM, Strain/Indicator: TA98, Metabolic Activation: NONE.
[3] abbreviates: Test System: AMES SALMONELLA TYPHIMURIUM, Strain/Indicator: TA100, Metabolic Activation: NONE.

For `O=[N+]([O-])c1ccc(Nc2ccc(O)cc2)c([N+](=O)[O-])c1`, the mutagenic call by setting is: (Test System: AMES SALMONELLA TYPHIMURIUM, Strain/Indicator: TA97, Metabolic Activation: HAMSTER, LIVER, S-9, AROCLOR 1254 (10%), Method: PREINCUBATION) “active; positive”; (Test System: AMES SALMONELLA TYPHIMURIUM, Strain/Indicator: TA97, Metabolic Activation: NONE, Method: PREINCUBATION) “inactive; negative”; (Test System: AMES SALMONELLA TYPHIMURIUM, Strain/Indicator: TA97, Metabolic Activation: RAT, LIVER, S-9, AROCLOR 1254 (10%), Method: PREINCUBATION) “inactive; negative”; (Test System: AMES SALMONELLA TYPHIMURIUM, Strain/Indicator: TA98, Metabolic Activation: HAMSTER, LIVER, S-9, AROCLOR 1254 (10%), Method: PREINCUBATION) “active; positive”; (Test System: AMES SALMONELLA TYPHIMURIUM, Strain/Indicator: TA98, Metabolic Activation: NONE, Method: PREINCUBATION) “active; positive”; (Test System: AMES SALMONELLA TYPHIMURIUM, Strain/Indicator: TA98, Metabolic Activation: RAT, LIVER, S-9, AROCLOR 1254 (10%), Method: PREINCUBATION) “active; positive”. Moreover, the mutagenic call was “active; positive” (Test System: AMES SALMONELLA TYPHIMURIUM, Strain/Indicator: TA100, Metabolic Activation: HAMSTER, LIVER, S-9, AROCLOR 1254 (10%), Method: PREINCUBATION); “active; positive” under setting [1]; “active; positive” (Test System: AMES SALMONELLA TYPHIMURIUM, Strain/Indicator: TA100, Metabolic Activation: RAT, LIVER, S-9, AROCLOR 1254 (10%), Method: PREINCUBATION); “inactive; negative” (Test System: AMES SALMONELLA TYPHIMURIUM, Strain/Indicator: TA1535, Metabolic Activation: HAMSTER, LIVER, S-9, AROCLOR 1254 (10%), Method: PREINCUBATION); “inactive; negative” (Test System: AMES SALMONELLA TYPHIMURIUM, Strain/Indicator: TA1535, Metabolic Activation: NONE, Method: PREINCUBATION); “inactive; negative” (Test System: AMES SALMONELLA TYPHIMURIUM, Strain/Indicator: TA1535, Metabolic Activation: RAT, LIVER, S-9, AROCLOR 1254 (10%), Method: PREINCUBATION).
As for `N[C@@H](CS/C(Cl)=C(\Cl)C(Cl)(Cl)Cl)C(=O)O`, the mutagenic call is “active; positive” under setting [1] and “active; positive” (Test System: AMES SALMONELLA TYPHIMURIUM, Strain/Indicator: TA100, Metabolic Activation: RAT, LIVER OR KIDNEY, MICROSOMES, Method: PREINCUBATION).
On to `CC(=O)N(CC(O)CO)c1c(I)c(C(=O)NCCO)c(I)c(C(=O)NCC(O)CO)c1I` (stereo not drawn), for which the mutagenic call by setting is: under setting [2], “inactive; negative”; (Test System: AMES SALMONELLA TYPHIMURIUM, Strain/Indicator: TA98, Metabolic Activation: RAT, LIVER, S-9) “inactive; negative”; under setting [3], “inactive; negative”; (Test System: AMES SALMONELLA TYPHIMURIUM, Strain/Indicator: TA100, Metabolic Activation: RAT, LIVER, S-9) “inactive; negative”; (Test System: AMES SALMONELLA TYPHIMURIUM, Strain/Indicator: TA1535, Metabolic Activation: NONE) “inactive; negative”; (Test System: AMES SALMONELLA TYPHIMURIUM, Strain/Indicator: TA1535, Metabolic Activation: RAT, LIVER, S-9) “inactive; negative”. The mutagenic call is “inactive; negative” (Test System: AMES SALMONELLA TYPHIMURIUM, Strain/Indicator: TA1537, Metabolic Activation: NONE); “inactive; negative” (Test System: AMES SALMONELLA TYPHIMURIUM, Strain/Indicator: TA1537, Metabolic Activation: RAT, LIVER, S-9); “inactive; negative” (Test System: E.COLI, Strain/Indicator: WP2 UVRA, Metabolic Activation: NONE); “inactive; negative” (Test System: E.COLI, Strain/Indicator: WP2 UVRA, Metabolic Activation: RAT, LIVER, S-9).
Consider `O=C1CCCc2ccc3c([N+](=O)[O-])c4ccccc4cc3c21`, for which the mutagenic call runs as follows: under setting [2], “inactive; negative”; (Test System: AMES SALMONELLA TYPHIMURIUM, Strain/Indicator: TA98, Metabolic Activation: S-9) “inactive; negative”; under setting [3], “inactive; negative”; (Test System: AMES SALMONELLA TYPHIMURIUM, Strain/Indicator: TA100, Metabolic Activation: S-9) “inactive; negative”.
